The conditions of series [1]: chronic/long-term; development.
The test system of the next series is Anas platyrhynchos. To be noted: acute; oral; unspecified; mortality.
In a further series the test system is Apis mellifera. The following applies: acute; duration: 48 hours; dermal; mortality.
The test system of another series is Bibionidae. To be noted: chronic/long-term; duration: 28 days.
In a further series the test system is Canidae. To be noted: oral, Dog Other, body weight.
In another series the test system is Coturnix coturnix. To be noted: acute; oral; mortality.
The next series has as its system Cyprinus carpio. The following applies: acute; duration: 96 hours; mortality.
The subject of another series is Daphnia magna. To be noted: chronic/long-term; duration: 21 days; reproduction.
The test system of a further series is Mus musculus. To be noted: acute; oral; mortality.
A further series relates to Pimephales promelas. To be noted: chronic/long-term; duration: 30 days; growth.
A further series relates to Tagia sp. The following applies: acute; duration: 14 days; mortality.
Another series relates to Aphidius rhopalosiphi. The series is described as follows: LR50; higher = less toxic. The following applies: not reported; mortality.

Molecules are shown by their SMILES. Where only a bound is given, the exact number is not on record here.

With `CC(=O)O.CCCCCCCCCCCCN=C(N)N` [Dodecylguanidine acetate], the NOEL amounted to 45 mg/kg-day in series [1] and 18.6 mg/kg-day in the series on Rattus norvegicus (chronic, body weight). The LD50 is 857 mg/kg-day with Anas platyrhynchos; greater than 100 µg/piece in the series on Apis mellifera; 981 mg/kg-day in the series on Coturnix coturnix; 1350 mg/kg-day in the series on Mus musculus; 851 mg/kg-day with Rattus norvegicus (acute, oral, mortality). Besides, the NOEC was determined as 3.2 mg/L in the series with Bibionidae, 0.0044 mg/L in the series with Daphnia magna, 0.099 mg/L in the series with Pimephales promelas and 171 mg/kg with Tagia sp.. The NOAEL in the series on Canidae (chronic, duration: 1 years) worked out at 10 mg/kg-day; in the series on Canidae (subchronic, duration: 90 days), 10 mg/kg-day; with Rattus norvegicus (reproduction developmental, body weight), 10 mg/kg-day. Moreover, the figures for the LC50 in the series with Cyprinus carpio and in the series with Tagia sp. were 0.6 µg/mL and 547 mg/kg, respectively. Moreover, in the series on Aphidius rhopalosiphi, the LR50 was greater than 1800 g/ha.

What is called NOAEL is the highest dose or exposure tested at which no adverse effect was seen.

For the origin of these results see EPA's ToxValDB 9.5 (doi:10.2903/j.efsa.2010.1631).
